# Data taken from ChEMBL document CHEMBL4385672, “Design, synthesis and biological evaluation of 2-(3,4-dimethoxyphenyl)-6 (1,2,3,6-tetrahydropyridin-4-yl)imidazo[1,2-a]pyridine analogues as antiproliferative agents” (Bioorg Med Chem Lett, 2019).
# Activity calls are given as the source filed them. No cut-off for these calls is given here.
# Experiments:
# MCF7 = experiment: Antiproliferative activity against human MCF7 cells; assay type: functional, cell-based
# B16-F10 [1] = experiment: Induction of apoptosis in mouse B16F10 cells assessed as early apoptosis cells level at 7 uM incubated for 48 hrs by Annexin V-FITC and PI staining based flow cytometry (reference value: 0.03 +/- 0.013%); assay type: functional
# B16-F10 [2] = experiment: Induction of apoptosis in mouse B16F10 cells assessed as late apoptosis cells level at 7 uM incubated for 48 hrs by Annexin V-FITC and PI staining based flow cytometry (reference value: 0.02 +/- 0.21%); assay type: functional
# [3] = Selectivity index, ratio of IC50 for cytotoxicity in HEK293 cells assessed as reduction in cell viability incubated for 48 hrs by MTT assay to IC50 for antiproliferative activity against mouse B16F10 cells incubated for 48 hrs by MTT assay; assay type: toxicity, cell-based; conditions: read-out: Ratio IC50
# A549 [4] = experiment: Antiproliferative activity against human A549 cells incubated for 48 hrs by MTT assay; assay type: functional, cell-based; conditions: A549, 48 h
# B16-F10 [5] = experiment: Antiproliferative activity against mouse B16F10 cells at 10 to 100 uM incubated for 48 hrs by MTT assay; assay type: functional, cell-based
# A549 [6] = experiment: Antiproliferative activity against human A549 cells at 10 to 100 uM incubated for 48 hrs by MTT assay; assay type: functional, cell-based
# [7] = Selectivity index, ratio of IC50 for cytotoxicity in HEK293 cells assessed as reduction in cell viability incubated for 48 hrs by MTT assay to IC50 for antiproliferative activity against human A549 cells incubated for 48 hrs by MTT assay; assay type: toxicity, cell-based; conditions: read-out: Ratio IC50
# B16-F10 [8] = experiment: Antiproliferative activity against mouse B16F10 cells incubated for 48 hrs by MTT assay; assay type: functional, cell-based; conditions: B16-F10, 48 h
# [9] = Selectivity index, ratio of IC50 for cytotoxicity in HEK293 cells assessed as reduction in cell viability incubated for 48 hrs by MTT assay to IC50 for antiproliferative activity against human HeLa cells incubated for 48 hrs by MTT assay; assay type: toxicity, cell-based; conditions: read-out: Ratio IC50
# HeLa [10] = experiment: Antiproliferative activity against human HeLa cells at 10 to 100 uM incubated for 48 hrs by MTT assay; assay type: functional, cell-based
# HEK293 = experiment: Cytotoxicity in HEK293 cells assessed as reduction in cel viability incubated for 48 hrs by MTT assay; assay type: cell-based; conditions: Homo sapiens, HEK293, 48 h
# HeLa [11] = experiment: Antiproliferative activity against human HeLa cells incubated for 48 hrs by MTT assay; assay type: functional, cell-based
IC50 (A549 [4]) [µM],IC50 (B16-F10 [8]) [µM],IC50 (HeLa [11]) [µM],SMILES,IC50 (MCF7) [µM],Activity (B16-F10 [1]) [%],Activity (B16-F10 [2]) [%],selectivity ratio at 48 h [3],Activity (B16-F10 [5]),Activity (A549 [6]),selectivity ratio at 48 h [7],selectivity ratio at 48 h [9],Activity (HeLa [10]),IC50 (HEK293) [µM]
–,–,–,COc1ccccc1[Se]c1c(-c2ccccc2)nc2ccc(F)cn12,12.5,–,–,–,–,–,–,–,–,–
6.47,7.69,6.47,COc1ccc(-c2cn3cc(C4=CCN(S(=O)(=O)C5CCCC5)CC4)ccc3n2)cc1OC,–,35.4,55.6,10 to 14,Active,Active,10 to 14,10 to 14,Active,102
